Like-named read-outs stand apart in the source and are kept apart here. Where no end group is shown, it is not given here.
Target: KsBcl-2 (Human herpesvirus 8 type P, UniProt F5HGJ3, V117A)
Assay: biochemical
Assay type: binding, Kaposi's sarcoma-associated herpesvirus

Sequence of KsBcl-2 (F5HGJ3 1-146 V117A): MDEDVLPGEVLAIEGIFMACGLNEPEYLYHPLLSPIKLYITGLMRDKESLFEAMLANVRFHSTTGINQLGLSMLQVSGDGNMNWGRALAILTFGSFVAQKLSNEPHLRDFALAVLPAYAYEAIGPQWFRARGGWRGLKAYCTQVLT

Compound | IC50 (SEM) [nM] | IC50 [nM]
CC[C@H](C)[C@H](NC(=O)[C@H](CC(N)=O)NC(=O)[C@H](CCCNC(=N)N)NC(=O)[C@@H](NC(=O)[C@@H](NC(=O)[C@H](CC(=O)O)NC(=O)[C@H](CCC(=O)O)NC(=O)[C@H](CCC(N)=O)NC(=O)[C@H](CO)NC(=O)[C@H](CCC(=O)O)NC(=O)[C@@H](N)CO)[C@@H](C)CC)[C@@H](C)CC)C(=O)N[C@@H](C)C(=O)N[C@@H](CCCNC(=N)N)C(=O)N[C@@H](Cc1c[nH]cn1)C(=O)N[C@@H](CC(C)C)C(=O)N[C@@H](C)C(=O)N[C@@H](CCC(N)=O)C(=O)N[C@H](C(=O)NCC(=O)N[C@@H](CC(=O)O)C(=O)N[C@@H](CO)C(=O)N[C@@H](CCSC)C(=O)N[C@@H](CC(=O)O)C(=O)N[C@@H](CCCNC(=N)N)C(=O)N[C@@H](CO)C(=O)N[C@H](C(=O)N1CCC[C@H]1C(=O)N1CCC[C@H]1C(=O)NCC(=O)N[C@@H](CC(C)C)C(=O)N[C@H](C(=O)N[C@@H](CC(N)=O)C(=O)NCC(=O)N[C@@H](CC(C)C)C(=O)O)C(C)C)[C@@H](C)CC)C(C)C [Bid] | 20 ± 9 | –
CC[C@H](C)[C@H](NC(=O)[C@H](CS)NC(=O)[C@H](C)NC(=O)[C@H](CC(C)C)NC(=O)[C@H](CCCNC(=N)N)NC(=O)[C@H](CC(C)C)NC(=O)[C@H](C)NC(=O)[C@H](CC(C)C)NC(=O)[C@H](C)NC(=O)[C@H](CC(=O)O)NC(=O)[C@H](CO)NC(=O)CNC(=O)[C@H](CCC(=O)O)NC(=O)[C@@H](N)CCSC)C(=O)NCC(=O)N[C@@H](CC(=O)O)C(=O)N[C@@H](CCC(=O)O)C(=O)N[C@@H](CCSC)C(=O)N[C@@H](CC(=O)O)C(=O)N[C@H](C(=O)N[C@@H](CO)C(=O)N[C@@H](CC(C)C)C(=O)N[C@@H](CCCNC(=N)N)C(=O)N[C@@H](C)C(=O)N1CCC[C@H]1C(=O)O)C(C)C [Bik] | 64 ± 4 | –
CC[C@H](C)[C@H](NC(=O)[C@H](CCC(=O)O)NC(=O)[C@H](CCCN=C(N)N)NC(=O)[C@H](C)NC(=O)[C@H](Cc1c[nH]c2ccccc12)NC(=O)[C@H](CCC(N)=O)NC(=O)[C@H](CCC(=O)O)NC(=O)[C@@H](N)CCC(=O)O)C(=O)NCC(=O)N[C@@H](C)C(=O)N[C@@H](CCC(N)=O)C(=O)N[C@@H](CC(C)C)C(=O)N[C@@H](CCCN=C(N)N)C(=O)N[C@@H](CCCN=C(N)N)C(=O)N[C@@H](CCSC)C(=O)N[C@@H](C)C(=O)N[C@@H](CC(=O)O)C(=O)N[C@@H](CC(=O)O)C(=O)N[C@@H](CC(C)C)C(=O)N[C@@H](CC(N)=O)C(=O)N[C@@H](C)C(=O)N[C@@H](CCC(N)=O)C(=O)N[C@@H](Cc1ccc(O)cc1)C(=O)N[C@@H](CCC(=O)O)C(=O)N[C@@H](CCCN=C(N)N)C(=O)N[C@@H](CCCN=C(N)N)C(=O)O [Puma] | 26 ± 9 | –
PAELEVECATQLRRFGDKLNFRQKLL [Noxa] | – | 220
PSSTMGQVGRQLAIIGDDINRRYDSE [Bak] | 8 | –
VPGRLAEVCAVLLRLGDELEMIRPSV [Bok] | 198 ± 13 | –
VPQDASTKKLSECLKRIGDELDSNMELQ [Bax] | 16 | –
